Consider 3 molecules from PMC10526199 (Biomolecules, 2023).

One data set concerns HDAC1. Particulars: cited from earlier work.
In a further data set the test system is HDAC2. Particulars: cited from earlier work.
The subject of a further data set is HDAC3. Particulars: cited from earlier work.
The subject of another data set is HDAC8. Particulars: cited from earlier work.
The test system of data set [1] is 3xTg-AD mice. Put plainly: Behavior tests (NOR and battery) in 3xTg-AD mice. It is filed as in vivo, mouse. The note with it: 0.01 mg/kg oral gavage 5 days a week. The text has this:
(§1) Male and female triple-transgenic AD (3xTg-AD) mice from the NIH-supported Mutant Mouse Resource & Research Centers (MMRRC) were purchased through the Jackson Laboratory (Farmington, CT, USA). Mice were housed four animals per cage in an AAALAC-accredited animal facility at the University of Miami Miller School of Medicine. All experiments were approved by the University of Miami Miller School of Medicine Institutional Animal Care and Use Committee (IACUC).
(§2) Formulations were made fresh weekly and sonicated briefly to mix. Beginning at 4 months of age (prior to disease development), mice were treated 5 days a week for 9 months.
A series of behavior tests intended to test motor coordination, anxiety, spatial learning, and reference memory was performed as previously performed by our lab. Motor coordination was assessed at 11 months of age using rotarod. Anxiety was assessed by open field at 7 months and elevated O-maze at 11 months. […]
1. […] Motor coordination was assessed by the latency to fall on the very first trial between treatment groups. […]
3. […] Arm entries were recorded and percent of spontaneous alternations was calculated. […]
4. […] Distance traveled, velocity of movement within the arena, and time in center versus periphery were recorded and analyzed. Anxiety- related behavior is assessed by the duration spent in the center of the field versus the periphery. […]

Data set [2] concerns 3xTg-AD mice. The experiment in a line: Intraperitoneal glucose tolerance testing (GTT) in 3xTg-AD mice. It is filed as in vivo, mouse. The note with it: 10 months of age, 0.01 mg/kg oral gavage 5 days a week.
Description: as §1, §2
(§3) Mice underwent intraperitoneal (i.p.) glucose tolerance testing (GTT) at 10 months of age, and insulin tolerance testing (ITT) at 12 months of age. For both tests, mice were food fasted 6 h prior to testing, with access to water. For GTT, mice were injected with 1.5 g/kg body weight glucose diluted in saline. For ITT, mice were injected with 0.8 U/kg body weight insulin. For both tests, blood glucose was measured from a tail prick by a glucometer (Bayer; Leverkusen, Germany) at 0, 15, 30, 60, 90, and 120 min.

Data set [3] concerns 3xTg-AD mice. Put plainly: Insulin tolerance testing (ITT) in 3xTg-AD mice. Particulars: 12 months, 0.01 mg/kg oral gavage 5 days a week. It is filed as in vivo, mouse.
Description: as §1, §2, §3

The test system of data set [4] is Human Aβ1–42, Aβ1–40, total tau, phosphorylated-tau Serine-396, phosphorylated-tau Threonine-181. The experiment in a line: ELISA for tau and Aβ species in brain tissue of 3xTg-AD mice. It is filed as in vivo, mouse.
Description: as §1, §2
(§4) At 13 months of age, mice were anaesthetized with isoflurane and euthanized via cardiac puncture. The brain was extracted and quickly dissected on ice, and snap-frozen in liquid nitrogen. The samples were stored at −80 °C until processed. For each mouse, brain regions from one hemisphere were used for RNA extraction and qPCR and sections from the other hemisphere were used for protein extraction and ELISAs.
Protein lysates were prepared by sonicating tissue in M-PER Mammalian Protein Extraction Reagent (Thermo Fisher Scientific; Waltham, MA, USA) supplemented with protease and phosphatase inhibitor (Thermo Fisher Scientific). Total protein was quantified using Pierce BCA Protein Assay Kit (Thermo Fisher Scientific). Human Aβ1–42, Aβ1–40, total tau, phosphorylated-tau Serine-396, and phosphorylated-tau Threonine-181 were measured in brain tissue by enzyme-linked immunosorbent assay (ELISA; Invitrogen, Thermo Fisher Scientific), and measured using the EnVision® multimode plate reader (Perkin Elmer; Waltham, MA, USA).
For orientation: An ELISA detects its analyte on a solid surface through an enzyme-linked reagent.

For data set [5], the system named is differentially expressed genes. Put plainly: NanoString nCounter Mouse Neuropathology Panel and Ingenuity Pathway Analysis, ERC RNA of 3xTg-AD mice. The class given is in vivo. The note with it: for DEGs decreased compared to vehicle / DEGs increased compared to vehicle / significant differentially expressed genes (DEG) compared to vehicle: ERC, 0.01 mg/kg oral gavage 9 months; for significant differentially expressed genes (DEG) compared to vehicle: Q value < 0.01; for most pathways incl. neuroinflammation signaling and amyloid processing pathway, vs vehicle: Ingenuity Pathway Analysis.
Description: as §1, §2, §4
The NanoString Technologies nCounter® Mouse Neuropathology Panel was used to assess ERC RNA. This panel screens expression of 770 genes specific for neurodegeneration. We also included a custom 30-gene spike-in code set to include specific genes of interest. Assays were performed using the NanoString protocols, and data were normalized in nSolver® analysis software v 2.0.
Heatmaps were created with Morpheus Software (accessed on 20 February 2022; software.broadinstitute.org/Morpheus). Ingenuity Pathway Analysis (Qiagen) was used to run comparison analyses of differentially regulated pathways between male and female animals.

The subject of a further data set is Adam10, Slc2a1, Slc2a3. The experiment in a line: RT-qPCR of AD- and glucose metabolism-related genes in brain of 3xTg-AD mice. It is filed as in vivo, mouse. Particulars: 0.01 mg/kg oral gavage 9 months.
Description: as §1, §2, §4
RNA was isolated from tissue using TRIzol® reagent (Life Technologies, Thermo Fisher Scientific) and a Qiagen RNeasy® Mini Kit (Qiagen; Hilden, Germany). RNA concentrations and quality were determined using NanoDrop 2000 UV-Vis Spectrophotometer (Thermo Fisher Scientific). cDNA was created using qScript cDNA Synthesis kit (Quantabio; Beverly, MA, USA). RT-qPCR was run using TaqMan 2-step RT-qPCR reagents (Thermo Fisher Scientific) on the QuantStudio Flex RT-qPCR system (Applied Biosystems, Thermo Fisher Scientific). Fold-change in gene expression relative to non-transduced controls were normalized. Results presented are based on fold-change using the 2^(−ΔΔCt) method.
Background: In qPCR the cycle at which signal appears reflects the starting amount.

A further data set has as its system HDAC10. Particulars: cited from earlier work.
For data set [6] the following is noted: cited from earlier work.
Data set [7] relates to histone H3K27 acetylation. Particulars: 0.1 mg/kg, mouse model of immune thrombocytopenia; cited from earlier work.
Where [8] appears, read: PFC, 0.01 mg/kg oral gavage 5 days a week for 9 months.
Where [9] appears, read: hippocampus, females, 0.01 mg/kg oral gavage 5 days a week for 9 months.
The mark [10] stands for this setting: hippocampus, males, 0.01 mg/kg oral gavage 5 days a week for 9 months.

What is called IC50 is the concentration that inhibits the measured activity by half. For the molecule `CC(=O)Nc1ccc(C(=O)Nc2ccccc2N)cc1` [Tacedinaline], the IC50 in the data set with HDAC1 is […]; with HDAC2, […]; with HDAC3, 1.2 µM. Besides, the “inhibition of HDAC8” value in the data set with HDAC8 is “not reported to inhibit HDAC8”.

As for `Nc1ccccc1NC(=O)c1ccc(CNC(=O)OCc2cccnc2)cc1` [Entinostat], the IC50 in the data set with HDAC1 was […]; in the data set with HDAC2, […]; in the data set on HDAC8 (reported), […].

For the molecule `Nc1cc(F)ccc1NC(=O)c1ccc(CNC(=O)/C=C/c2cccnc2)cc1` [chidamide], the “NOR: time exploring novel vs familiar object compared to vehicle” value in the data set on 3xTg-AD mice [1] (10-month-old males) is reported as “longer time exploring the novel object”. For the same molecule, in the data set on 3xTg-AD mice [1] (males and females), the “overall behavior data (anxiety, learning, memory)” value is “do not reach the appropriate effect size to distinguish any meaningful results”. Further, the “glucose tolerance vs vehicle” value with 3xTg-AD mice [2] (females) is “trend towards improved glucose tolerance”; in the data set on 3xTg-AD mice [2] (males), “significant improvement in glucose tolerance”. The “insulin tolerance vs vehicle” value in the data set with 3xTg-AD mice [3] (females) and with 3xTg-AD mice [3] (males) was “No significant differences” each time. The “tau phosphorylated at serine 396 (S396) vs vehicle” value in data set [4] (PFC, females, 0.01 mg/kg oral gavage 5 days a week for 9 months) was “no significant difference”; in data set [4] (PFC, males, 0.01 mg/kg oral gavage 5 days a week for 9 months), “significantly greater”. The “Aβ-40 levels, treated females compared to treated males” value in [4] (setting [8]) is “greater in chidamide-treated females compared to males”. Moreover, the “PFC Aβ-42 change with treatment” value in data set [4] (setting [8]) was “a corresponding decrease in PFC Aβ-42 was not observed”. The “progression of AD-like pathology” value in data set [4] (chronic, low-dose 0.01 mg/kg, 3xTg-AD mouse) is “does not appear to significantly alter progression of AD-like pathology”. Also, the “tau phosphorylated at threonine 181 (T181) vs vehicle” value in [4] (setting [9]) and in [4] (setting [10]) was “trend for decreased levels” throughout. The “total tau levels vs vehicle” value in data set [4] (setting [9]) was “did not show a significant difference”; in data set [4] (setting [10]), “significantly lower levels of total tau”. For the same molecule, the “Aβ-42 levels, treated females compared to treated males” value in data set [4] (hippocampus, 0.01 mg/kg oral gavage 5 days a week for 9 months) is given as “significantly greater in the hippocampus of female- compared to male-treated mice”. In addition, the figures for the “DEGs decreased compared to vehicle” value in data set [5] (females) and in data set [5] (males) were 6 and 41, respectively. The figures for the “DEGs increased compared to vehicle” value in data set [5] (females) and in [5] (males) were 11 and 83, respectively. Moreover, the figures for the “significant differentially expressed genes (DEG) compared to vehicle” value in data set [5] (females) and in data set [5] (males) were 17 and 124, respectively. Also, the “most pathways incl. neuroinflammation signaling and amyloid processing pathway, vs vehicle” value in data set [5] (females) is recorded as “downregulated”; in data set [5] (males), “upregulated”. Moreover, the “Adam10 expression vs vehicle” value in the data set with Adam10, Slc2a1, Slc2a3 (PFC, females) is on record as “significantly greater”; in the data set with Adam10, Slc2a1, Slc2a3 (PFC, males) it was “trend for increase”; with Adam10, Slc2a1, Slc2a3 (hippocampus), “no difference was observed”. Further, in the data set with Adam10, Slc2a1, Slc2a3 (males, hippocampus), the “Slc2a1 (GLUT1) expression vs vehicle” value is “trend for an increase”. Besides, the “Slc2a3 (GLUT3) expression vs vehicle” value with Adam10, Slc2a1, Slc2a3 (males, hippocampus) is listed as “significant increase”. Besides, in the data set on HDAC1, the “inhibition of HDAC1” value is on record as “low nanomolar range”. Moreover, the “inhibition of HDAC2” value with HDAC2 is reported as “low nanomolar range”. For the same molecule, in the data set with HDAC3, the “inhibition of HDAC3” value was “low nanomolar range”. For the same molecule, in the data set on HDAC10, the “inhibition of class IIB HDAC10” value is recorded as “low nanomolar range”. Moreover, the “blood–brain barrier crossing” value in data set [6] is recorded as “crosses the blood–brain barrier”. Also, the “histone H3K27 acetylation” value in data set [7] is “modulation of histone H3K27 acetylation occurred at this low dose”.
